Laboratory results published in patent publication US6015560A, “Antibody recognizing endothelial cell ligand for leukocyte CR3” (priority 1995, dated 2000).

Tests used:
leukocytes in CSF = experiment: Leukocyte and protein influx into CSF of rabbits challenged with pneumococci; format: in vivo, rabbit; settings: intravenous, meningitis model
Excerpt: This inhibitory activity implies that antibodies to FHA which bind to any of the three Factor X regions would disturb leukocyte recruitment. This is to be distinguished from anti-FHA antibodies that bind to endothelia by recognizing an integrin receptor which is an endothelial cell component (see below). […] This is shown in FIG. 6 where various doses of antibody were given to rabbits and the number of leukocytes recruited into the cerebrospinal fluid in response to pneumonoccal meningitis was determined.
Rabbits were inoculated intracisternally with 10^8 pneumococci and the generation of an inflammatory response in cerebrospinal fluid (CSF) was followed over time by measuring the appearance of leukocytes and protein in CSF. Animals were treated with the antibodies intravenously (2 mg/kg of culture supernatant fluid) at the same time as the intracisternal challenge was given.

neutrophils = experiment: Inhibition of 125I-Factor X binding to neutrophils; parameters: species or system human
Procedure: Human Factor X (Sigma or Hematologic Technologies Inc.) was labeled with ^125 I using Iodogen (Pierce Chemical Co.) Human neutrophils were isolated from heparinized blood according to the manufacturer's specification using Neutrophil Isolation Medium (Cardinal Associates, Santa Fe, N.Mex.) and washed three times with 5 mM EDTA-phosphate-bufferedsaline (PBS), pH 7.2, at 4° C. To eliminate platelet contamination,neutrophils were incubated with autologous serum containing 5 mM EDTA for 30 mins. at 37° C., washed three times with ice-cold PBS, pH 7.2, and resuspended in RPMI 1640 tissue culture medium (Whittaker M. A. Bioproducts, Walkersville, Md.) at 4° C. Binding of ^125 I-Factor X to neutrophils was measured based on a method described by Altieri et al. (1991) Science 254: 1200-1202. Briefly, 200 μl of neutrophils (1.5×10^7 /ml) were supplemented with 17.5 μl of 50 mM CaCl2, stimulated with 3.5 μl of 100 μM NH2 -formyl-Met-Leu-Phe (Sigma), and mixed with 30 μl of 10.3 μg/ml ^125 I-Factor X and 100 μl of 1.75 mM of peptide. […] Aliquots of the supernatant (cell free ^125 I-Factor X) and the cell pellet (cell bound ^125 I-Factor X) were counted in a gamma-counter. Nonspecific binding (~50,000 cpm) was determined by adding a 100 fold excess of unlabeled Factor X, and subtracted from total radioactivity (~500,000 cpm for controls).

[1] = TLC plates containing ciliary extracts; cited from earlier work
[2] = test system: human umbilical vein endothelial cells; experiment: Adherence of neutrophils to cultured (TNF-stimulated) endothelial cells; format: cell-based
Procedure: Human umbilical vein endothelial cells (HUVEC, first passage, Clonetics, San Diego, Calif.) were subcultured at confluence into Terasaki tissue culture wells. After 24 hours, confluent monolayers were used for adherence assays. Monolayers were stimulated with 10 ng/ml TNF alpha (Boehringer Mannheim, Indianapolis, Ind.) at 37° C. for four hours. 30 μl of human neutrophils (10^6 /ml) were labeled with fluorescein by the method of Lo et al. (1991), J. Exp. Med. 173 1493-1500, and preincubated for 15 minutes at 37° C. with 20 μl of peptides (0.5 mM in HAP) or HAP (phosphate buffered saline containing 0.5 mg/ml human serum albumin, 3 mM glucose, and 0.3 U/ml aprotinin) as a control buffer. For some experiments, endothelial cells were pretreated from 10 minutes with Factor X or antibodies against Factor X receptor (EPR-1; Altieri et al. (1990), J. Immunol. 145, 246-253) 12H1 and 9D4 (obtained from Dr. D. Altieri, Scripps Research Institute, Lajolla, Calif.) and then washed. Neutrophils were allowed to adhere to the monolayer for 15 mins. at 37° C. and unbound cells were removed by submersion of the plate in PBS buffer. The number of adherent neutrophils was counted in a 40× microscope field and expressed as a percentage of adherence in control wells with neutrophils treated with HAP buffer alone. The mAb IB4 against CD18 (50 μg/ml; Merck Inc., Rahway, N.J.) served as a positive control.
The procedures for determining the neutrophil adherence to cultured endothelial cells and the transendothelial migration of neutrophils were identical with those of Example 9. Control values were the same as those shown in Example 9.

filamentous hemagglutinin [native FHA]
leukocyte influx into / inflammation of CSF (in words) (leukocytes in CSF): decreases inflammation | IC50 (neutrophils): 100 nM | inhibition of 125I-Factor X binding to neutrophils (neutrophils; native FHA 0.3 μM): 70±4% | binding to lactosylceramide [1]: binds to lactosylceramide | reduction of neutrophil binding to HUVEC ([2]; 25 μg/ml=0.3 μM): 51±8% | inhibition of adherence of neutrophils to cultured endothelial cells ([2]; 50 ug/ml, 0.2 uM): 51±7% | maximal inhibition of neutrophil attachment ([2]; concentration dependence): ~ 50%
